Data on one substance can be found in patent US9555086B2, “Compositions and methods for inducing an immune response” (The Regents of the University of Michigan, priority 2010, dated 2017).

In one assay the test system is NO signaling in DC. The experiment in a line: NO production in bone marrow-derived CD11c+ dendritic cells (DAF-2DA). The class given is cell-based, mouse. The settings on record: 100 μg/ml 15mer peptide; Balb/c DC; compared to ISL-negative peptides. As to the method: Bone marrow cells from Balb/c (A and B) or DBA/1 (C and D) mice were differentiated into DCs in culture with GM-CSF ([…]) and IL-4 ([…]). CD11c+ DCs were purified using magnetic beads with >95% purity. DCs were then incubated with SE-positive (65-79*0401 or 65-79*0404), or with SE-negative (65-79*0402 or 65-79*0403) 15mer peptides and NO production was measured as described below. The results are expressed as mean±SEM fluorescence units (FU), or FU per minute. *p<0.01 compared to all ligand controls.
DCs play a key role in immune regulation. […] DC cells were incubated over time with 100 μg/ml of ISL-positive or -negative 15mer peptides, and NO production was measured.
To determine the rate of NO production, cells were loaded with 20 μM of the fluorescent NO probe 4,5-diaminofluorescein diacetate (DAF-2DA) and the fluorescence level was recorded every 5 minutes over a period of 500 minutes using a Fusion αHT system (PerkinElmer Life Sciences) at an excitation wavelength of 488 nm and emission wavelength of 515 nm. To determine IDO enzymatic activity, the generation of its product, kynurenine was measured (Takikawa et al. 1988. J Biol Chem 263:2041-2048.; herein incorporated by reference in its entirety). Cytokine concentrations were measured in cell culture supernatants using a Luminex platform (Millipore Corporation, Danvers, Mass.). […]

In assay [1] the test system is Human fibroblast M1 cells. The settings on record: previously determined; cited from earlier work.
A further assay deals with Th17 cells. The assay is described as follows: ISL polarizing effect in vivo (CII in CFA immunization). More on the design: species or system DBA/1 mice. On the procedure: (A) DBA/1 mice were immunized with CII in CFA in the presence of PBS, 65-79*0401 or 65-79*0402. On day 7, cells from draining lymph nodes were isolated, cultured for 6 hours with PMA, Ionomycin and Brefeldin A and then stained with anti-mouse CD4, IL17A and IFN-γ as above. On the left: Representative dot plots showing percentages of IL17A+ and IFN-γ+ cells obtained from gated CD4+ cells. On the right, bar graphs showing results as mean±SD of duplicate experiments. (B) DBA/1 and CII-TCR Tg mice were immunized as in (A). On day 7, splenic cells were isolated and cultured with the synthetic peptide CII260-267 (5 μg/ml). Supernatants were collected every 24 hours and assayed for IL-17 levels by ELISA.
Mice were injected subcutaneously in the footpad with 100 μg of chicken collagen type II (CII) (Chondrex, Inc, Redmond, Wash.) emulsified in CFA (4 mg/ml). The inoculums contained 10 μg of either ISL-positive 65-79*0401 or ISL-negative 65-79*0402 ligands in PBS, or an equal volume of PBS alone. Animals were sacrificed 7 days after immunization. For Th17 quantification studies, inguinal and popliteal lymph nodes were collected and single cell suspensions were prepared. Unfractionated lymph node cells were cultured with PMA, Ionomycin and Brefeldin A for 6 hours as above. Cells were stained with FITC anti-mouse CD4 or isotype controls, followed by fixation and permeabilization using a Cytofix-Cytoperm™ kit. After permeabilization, intracellular staining was performed using PE-conjugated anti-mouse IL17A and APC-conjugated anti-mouse IFN-γ and cells were analyzed by flow cytometry as above. To measure IL-17 production, splenocytes from mice immunized as above were stimulated in vitro with 5 μg of CII259-273 peptide. At different time points thereafter, supernatants were collected and assayed for IL-17 by ELISA as above.

In the next assay the test system is CD4+IL17A+ T cells. The assay is described as follows: Th17 differentiation and IL-17 production in DC/CD4+ T cell co-culture. The class given is cell-based, mouse. The settings on record: peptide-stimulated DCs; naïve T cells, Th17-polarizing cocktail, 6 days. On the procedure: DBA/1 bone marrow-derived CD11c+DCs were cultured overnight in the presence or absence of (A) ISL 65-79*0401 or ISL-negative control 65-79*0402, or (B) ISL-positive T-DRB1*0401 tetramers, versus ISL-negative T-DRB1*0301, or T-DRB1*1501 tetramers. Syngeneic splenic CD4+CD25−CD62L+CD44− naïve T cells plus a Th17-differentiation cytokine/antibody cocktail were then added to the culture and incubated for 6 days. Intracellular IL17A was determined by flow cytometry. On the left: a representative experiment, one of three repetitions, showing percentages of CD4+IL17A+ cells as dot plots. On the right: bar graphs show results presented as mean percentage±SD of replicate samples.
(A) DBA/1 bone marrow-derived CD11c+ DCs were cultured overnight with different peptidic ligands as above. Syngeneic splenic CD4+ T cells plus a Th17-polarizing cocktail were added to the culture and incubated for 6 days. IL-17A-positive cells were quantified by flow cytometry. On the left: dot plots showing percentage of CD4+IL17A+ T cells. […]
After 6 days, cells were stimulated with PMA (5 ng/ml) and ionomycin (500 ng/ml) for the last 6 hrs of culture. […] Mean florescence intensity and percentages of stained cells were determined by flow cytometry.

Consider H-KDLLEQKRAAVDTYC-NH2 [65-79*0401], for which the NO production entry in the assay with NO signaling in DC is “much more robust NO production”. Further, in assay [1], the “optimal concentration for NO production” value was 50 µM. In addition, in the assay with Th17 cells (10 μg co-administered with CII in CFA, footpad, day 7), the “Th17 abundance in draining lymph nodes” value is reported as “dramatically increased”. Besides, the “CII-stimulated IL-17 production by splenocytes” value with Th17 cells (compared to mice co-immunized with 65-79*0402) was “significantly more robust”. Further, the “frequency of Th1 (IFNγ-positive) cells” value with Th17 cells (draining lymph nodes, day 7) is recorded as “no change”. Further, the “differentiation of CD4+IL17A+ T cells” value in the assay on CD4+IL17A+ T cells is “significant increase”.
